According to ChEMBL document CHEMBL1201862, “PubChem BioAssay data set” (2004):
The source made the active and inactive calls.

Columns and labels:
[1] = target: T1, Cytochrome P450 3A4 (Homo sapiens, UniProt P08684); details: Potency
[2] = target: Cytochrome P450 2C19 (Homo sapiens, UniProt P33261); test: Cytochrome panel assay with activity outcomes. Panel member name: p450-cyp2c19 Compounds with AC50 equal or less than 10 uM are considered active; assay type: functional; details: read-out: AC50
Cytochrome P450 2C19, sequence (P33261 whole entry): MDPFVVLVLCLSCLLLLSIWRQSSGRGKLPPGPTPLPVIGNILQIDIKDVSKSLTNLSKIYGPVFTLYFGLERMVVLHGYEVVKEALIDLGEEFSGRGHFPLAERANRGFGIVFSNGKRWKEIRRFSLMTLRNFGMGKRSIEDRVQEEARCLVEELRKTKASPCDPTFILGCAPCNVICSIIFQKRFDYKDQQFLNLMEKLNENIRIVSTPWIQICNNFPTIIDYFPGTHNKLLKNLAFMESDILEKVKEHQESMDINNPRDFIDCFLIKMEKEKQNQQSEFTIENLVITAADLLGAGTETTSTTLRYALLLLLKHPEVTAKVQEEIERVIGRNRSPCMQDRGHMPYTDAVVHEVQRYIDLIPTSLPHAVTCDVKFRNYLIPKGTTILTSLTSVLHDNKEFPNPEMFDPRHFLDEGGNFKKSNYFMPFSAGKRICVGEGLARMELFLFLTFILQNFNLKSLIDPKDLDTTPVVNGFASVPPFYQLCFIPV

[3] = target: T1, Cytochrome P450 3A4
[4] = target: Cytochrome P450 2D6 (Homo sapiens, UniProt P10635);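 also: CYP2D6 member of a cytochrome P450 panel assay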
Cytochrome P450 2D6, sequence (P10635 whole entry): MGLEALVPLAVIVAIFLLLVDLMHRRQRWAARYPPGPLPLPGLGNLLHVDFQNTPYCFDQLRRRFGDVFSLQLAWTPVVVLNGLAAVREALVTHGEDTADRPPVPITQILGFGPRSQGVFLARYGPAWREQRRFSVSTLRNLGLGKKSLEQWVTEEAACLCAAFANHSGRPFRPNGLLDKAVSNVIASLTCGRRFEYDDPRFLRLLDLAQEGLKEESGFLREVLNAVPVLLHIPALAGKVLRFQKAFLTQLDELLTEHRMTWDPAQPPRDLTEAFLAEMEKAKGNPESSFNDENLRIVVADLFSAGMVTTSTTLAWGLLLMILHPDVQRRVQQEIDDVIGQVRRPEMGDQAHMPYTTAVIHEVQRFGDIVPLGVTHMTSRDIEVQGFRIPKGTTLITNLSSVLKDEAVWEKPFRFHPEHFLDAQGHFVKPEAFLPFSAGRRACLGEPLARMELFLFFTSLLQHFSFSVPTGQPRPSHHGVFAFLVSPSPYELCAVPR

[5] = test system: INS1; test: beta cell apoptosis inhibitors, cytokine rescue, dose response, luminescence, retest (AID 449756); assay type: functional, cell-based; details: Rattus norvegicus;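 also: cell death triggered by IL-1 beta plus TNF-alpha plus IFN-gamma mixture; protective hits raise ATP signal compared with cytokine alone wells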
[6] = test system: Streptococcus sp. 'group A'; test: growth inhibition of control SK(-) GAS strain, dose response, counter-screen for streptokinase expression inhibitor project, luminescence, kanamycin, BacTiterGlo, confirmation (AID 1900); assay type: functional, organism-based
[7] = target: T2, Streptokinase A (Streptococcus pyogenes serotype M1, UniProt P10520); test: S. pyogenes streptokinase expression inhibitors, potency, dose response, plasminogen activation absorbance, OD405 (AID 1914); assay type: functional, Streptococcus pyogenes M1 GAS;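 also: secreted streptokinase activity via plasminogen activation per viability signal from cell pellet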
T2 sequence (P10520 whole entry): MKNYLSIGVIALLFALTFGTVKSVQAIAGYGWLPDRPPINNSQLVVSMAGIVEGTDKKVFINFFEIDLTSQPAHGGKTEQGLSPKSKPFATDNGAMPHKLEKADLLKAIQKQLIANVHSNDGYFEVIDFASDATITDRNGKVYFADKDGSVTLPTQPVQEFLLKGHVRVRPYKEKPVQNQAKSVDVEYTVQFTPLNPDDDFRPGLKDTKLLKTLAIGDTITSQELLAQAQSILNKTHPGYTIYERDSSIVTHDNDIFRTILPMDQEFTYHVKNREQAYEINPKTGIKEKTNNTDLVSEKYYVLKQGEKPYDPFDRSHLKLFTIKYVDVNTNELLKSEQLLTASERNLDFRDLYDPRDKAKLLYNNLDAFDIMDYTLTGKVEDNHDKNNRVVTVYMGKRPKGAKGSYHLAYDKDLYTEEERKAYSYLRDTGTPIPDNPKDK

[8] = test system: Streptococcus; test: Group A Streptococcus viability loss, dose response, counter-screen for streptokinase expression inhibitor project, luminescence, BacTiterGlo (AID 1915); assay type: functional, organism-based;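 also: potency for reduction of bacterial viability or growth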
[9] = target: T3, Calpain-2 catalytic subunit (Sus scrofa, UniProt P43367); test: pig calpain II inhibitor potency, dose response, biochemical, fluorogenic peptide substrate (AID 1420); assay type: functional
T3 sequence (P43367 whole entry): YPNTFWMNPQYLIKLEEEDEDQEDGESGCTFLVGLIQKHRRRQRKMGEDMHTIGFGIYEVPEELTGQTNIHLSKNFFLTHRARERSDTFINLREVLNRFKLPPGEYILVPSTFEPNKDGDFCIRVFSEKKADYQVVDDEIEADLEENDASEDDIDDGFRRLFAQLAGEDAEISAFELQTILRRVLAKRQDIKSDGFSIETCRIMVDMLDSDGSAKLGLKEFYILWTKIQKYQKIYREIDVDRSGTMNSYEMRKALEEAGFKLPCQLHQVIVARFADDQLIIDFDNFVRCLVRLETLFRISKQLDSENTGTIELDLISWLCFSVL

[10] = target: T4, Cytochrome P450 1A2 (Homo sapiens, UniProt P05177);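 also: PubChem cytochrome P450 panel assay, CYP1A2 panel member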
T4 sequence (P05177 whole entry): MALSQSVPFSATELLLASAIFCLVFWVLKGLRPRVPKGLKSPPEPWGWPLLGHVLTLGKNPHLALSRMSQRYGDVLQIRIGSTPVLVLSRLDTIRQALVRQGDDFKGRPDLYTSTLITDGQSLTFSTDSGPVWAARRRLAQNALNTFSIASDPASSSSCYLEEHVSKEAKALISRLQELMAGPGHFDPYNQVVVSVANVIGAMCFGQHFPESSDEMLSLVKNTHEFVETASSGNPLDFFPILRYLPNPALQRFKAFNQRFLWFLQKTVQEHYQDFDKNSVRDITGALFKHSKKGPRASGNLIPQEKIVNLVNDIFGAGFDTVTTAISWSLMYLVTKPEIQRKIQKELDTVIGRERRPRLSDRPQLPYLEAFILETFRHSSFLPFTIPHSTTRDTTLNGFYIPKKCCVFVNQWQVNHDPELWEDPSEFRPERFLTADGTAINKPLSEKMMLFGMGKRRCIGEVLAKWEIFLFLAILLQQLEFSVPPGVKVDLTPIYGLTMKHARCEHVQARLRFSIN

[11] = microbe, parasite or virus in culture; assay type: functional; details: Mycobacterium tuberculosis
[12] = HEp-2 cell cytotoxicity, dose response, cytotoxicity control for RSV inhibitor project, HTS (AID 2410); assay type: functional; details: human respiratory syncytial virus
[13] = Luminescence Cell-Based Dose Retest to Confirm Inhibitors of Cancer Stem Cells. [Related pubchem assays (depositor defined):AID2717, AID2721]; assay type: functional; details: Homo sapiens
[14] = target: T5, Corticotropin-releasing factor receptor 2/Corticotropin-releasing factor-binding protein (Homo sapiens, UniProt P24387+Q13324); test: activators of CRF receptor 2 with binding protein – uHTS hits, confirmation (AID 602473); assay type: functional; details: read-out: EC50_Mean
T5 sequence (Q13324 whole entry): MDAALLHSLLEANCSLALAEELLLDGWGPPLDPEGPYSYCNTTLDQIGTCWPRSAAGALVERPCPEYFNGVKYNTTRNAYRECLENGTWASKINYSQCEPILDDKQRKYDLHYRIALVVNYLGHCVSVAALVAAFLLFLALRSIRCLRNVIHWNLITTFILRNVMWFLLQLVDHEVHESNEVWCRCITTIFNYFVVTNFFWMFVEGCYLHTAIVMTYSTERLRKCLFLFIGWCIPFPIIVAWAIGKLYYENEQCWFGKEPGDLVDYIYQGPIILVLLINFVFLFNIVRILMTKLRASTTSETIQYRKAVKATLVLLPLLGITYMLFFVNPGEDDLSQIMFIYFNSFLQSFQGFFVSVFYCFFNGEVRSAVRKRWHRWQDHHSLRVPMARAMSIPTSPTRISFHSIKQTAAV
T5 sequence (P24387 whole entry): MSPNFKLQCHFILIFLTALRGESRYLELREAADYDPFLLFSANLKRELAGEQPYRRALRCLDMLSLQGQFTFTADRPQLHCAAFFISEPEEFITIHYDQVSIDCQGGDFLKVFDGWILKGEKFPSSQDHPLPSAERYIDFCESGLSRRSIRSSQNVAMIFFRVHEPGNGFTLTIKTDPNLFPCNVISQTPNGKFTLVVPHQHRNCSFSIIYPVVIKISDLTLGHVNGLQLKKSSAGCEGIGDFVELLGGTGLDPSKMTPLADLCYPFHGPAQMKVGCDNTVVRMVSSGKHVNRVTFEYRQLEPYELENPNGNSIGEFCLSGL

[15] = target: T5, Corticotropin-releasing factor receptor 2/Corticotropin-releasing factor-binding protein; test: Dose Response confirmation of uHTS hits for small molecule antagonists of the CRF-binding protein and CRF-R2 receptor complex.; assay type: functional; details: read-out: IC50_Mean

T1 sequence (P08684 whole entry): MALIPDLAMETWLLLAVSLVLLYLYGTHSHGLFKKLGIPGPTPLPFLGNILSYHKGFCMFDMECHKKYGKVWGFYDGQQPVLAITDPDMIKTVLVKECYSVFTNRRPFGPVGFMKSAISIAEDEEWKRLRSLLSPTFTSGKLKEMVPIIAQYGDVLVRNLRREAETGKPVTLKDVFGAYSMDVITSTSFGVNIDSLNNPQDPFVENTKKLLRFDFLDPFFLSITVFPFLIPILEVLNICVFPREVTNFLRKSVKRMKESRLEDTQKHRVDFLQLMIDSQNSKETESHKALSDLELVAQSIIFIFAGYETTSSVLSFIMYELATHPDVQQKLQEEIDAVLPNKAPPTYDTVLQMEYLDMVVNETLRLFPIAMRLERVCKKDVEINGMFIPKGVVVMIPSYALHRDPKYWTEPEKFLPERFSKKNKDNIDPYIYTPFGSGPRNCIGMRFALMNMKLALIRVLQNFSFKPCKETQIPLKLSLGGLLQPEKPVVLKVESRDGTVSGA

Which AC50 [1] does the source give for `N#Cc1ccc(C23CC4(C2)[C@H](CN(CC2CCCCC2)[C@@H]4c2ccccc2)C3c2ccc(C(F)(F)F)cc2)cc1` (stereo partly drawn) here?
Its AC50 is 15.8 µM (inconclusive).

Which AC50 [2] does the source give for `Cc1ccccc1OCCNc1ccc(C(F)(F)F)cc1[N+](=O)[O-]` here?
Its AC50 is 0.316 µM (inconclusive).

What about the AC50 [3] of the same compound?
Its AC50 is 31.6 µM (inconclusive).

And the AC50 [4]?
Its AC50 is 5.01 µM (inconclusive).

For `Nc1ccc(Nc2ccc([N+](=O)[O-])cc2[N+](=O)[O-])cc1`, which AC50 [5] is on record?
The AC50 was 59.4 µM (active).

For `Clc1ccc2nc(-c3ccccn3)c(Nc3ccc4c(c3)OCO4)n2c1`, which EC50 [6] is on record?
The EC50 was 6.89 µM (active).

What about the EC50 [7] of the same compound?
Its EC50 is > 150 µM (not active).

And the EC50 [8]?
The EC50 was 12.7 µM (active).

What about the IC50 [9] of the same compound?
The IC50 was 0.608 µM (not active).

For `Cc1ccc(-c2nnc(C)c(N3CC(C)OC(C)C3)n2)cc1` (stereo not drawn), which AC50 [10] is on record?
The AC50 was 4.47 µM (inconclusive).

And the AC50 [3]?
Its AC50 is 5.01 µM (inconclusive).

With `c1ccc(Nc2ccc3ccccc3c2)cc1` as the compound, how does the AC50 [1] read?
The AC50 was 25.1 µM (inconclusive).

For `CCNC(=O)NCc1c(C)c(C)n(Cc2ccccc2)c1-n1cccc1`, which IC50 [9] is on record?
The IC50 was 8.86 µM (not active).

For `CC(NC(=O)CCCCCN1C(=O)c2ccccc2C1=O)c1ccc2c(c1)CCCC2` (stereo not drawn), which IC50 [9] is on record?
The IC50 was 10.7 µM (not active).

Which CC50 [11] does the source give for `Cc1ccccc1C(=O)Nc1ccc(-c2nc3cc(C(=O)c4ccccc4)ccc3[nH]2)cc1` here?
Its CC50 is > 40 µM (active).

What about the CC50 [12] of the same compound?
Its CC50 is 6.02 µM (active).

What about the AC50 [13] of the same compound?
Its AC50 is 1.36 µM (active).

With `Cc1nc(SCC(=O)NC(C)c2ccccc2)c2oc3ccccc3c2n1` (stereo not drawn) as the compound, how does the IC50 [9] read?
Its IC50 is < 0.4 µM (not active).

With `Cc1ccc(-c2csc(NC(=S)NC(=O)c3ccco3)n2)cc1` as the compound, how does the IC50 [9] read?
The IC50 was 4.46 µM (not active).

For `O=C(COC(=O)c1ccncc1)Nc1cc(S(=O)(=O)N2CCOCC2)ccc1Cl`, which EC50 [14] is on record?
Its EC50 is > 53 µM (inactive).

And the IC50 [15]?
The IC50 was > 47.1 µM (inactive).

Which EC50 [14] does the source give for `COc1ccc(N(C(=O)c2ccco2)C(C(=O)NC2CCCC2)c2ccc(N3CCOCC3)cc2)c(OC)c1` (stereo not drawn) here?
Its EC50 is > 53 µM (inactive).

And the IC50 [15]?
Its IC50 is > 47.1 µM (inactive).

Which EC50 [14] does the source give for `COc1ccc2[nH]c3c(c2c1)CCN1C(=O)C(CC(=O)NCCc2ccccn2)C[C@H](C(=O)N(C(C)C)C(C)C)[C@@]31C` (stereo partly drawn) here?
Its EC50 is > 53 µM (inactive).

What about the IC50 [15] of the same compound?
Its IC50 is > 47.1 µM (inactive).

For `CCCCCC(=O)NNC(=O)c1ccc(F)cc1`, which EC50 [14] is on record?
Its EC50 is > 53 µM (inactive).

What about the IC50 [15] of the same compound?
Its IC50 is > 47.1 µM (inactive).

For `O=C(CNc1ccccc1)N/N=C/c1c(O)ccc2ccccc12`, which AC50 [5] is on record?
Its AC50 is 3.29 µM (active).

And the EC50 [6]?
The EC50 was 1.02 µM (active).

What about the EC50 [8] of the same compound?
Its EC50 is 0.939 µM (active).

For `O=C(N/N=C\c1ccc(Sc2ccccn2)o1)c1cccc(Br)c1`, which AC50 [3] is on record?
The AC50 was 22.4 µM (inconclusive).

What about the AC50 [4] of the same compound?
Its AC50 is 28.2 µM (inconclusive).

Which CC50 [11] does the source give for `CCC1=C(OC(=O)N(CC)CC)N2C(=O)O/C(=N\CCc3c[nH]c4ccccc34)[C@]2(Cc2ccccc2)[C@H]2C1=CC[C@H]1C(=O)NC(=O)[C@H]12` here?
The CC50 was > 40 µM (active).
